According to publication PMC9163592 (The Journal of Biological Chemistry, 2022):

Legend:
IsdH linker-NEAT3 = IsdH linker-NEAT3 (Staphylococcus aureus, UniProt Q931P4); assay: biochemical
IsdH NEAT3 = IsdH NEAT3 (Staphylococcus aureus, UniProt Q931P4); assay: biochemical
Sequence of IsdH NEAT3 (Q931P4 539-664): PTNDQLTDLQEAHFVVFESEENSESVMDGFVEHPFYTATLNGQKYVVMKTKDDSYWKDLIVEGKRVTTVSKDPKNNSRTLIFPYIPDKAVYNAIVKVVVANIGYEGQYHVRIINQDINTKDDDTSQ

Sequence of IsdH linker-NEAT3 (Q931P4 486-664): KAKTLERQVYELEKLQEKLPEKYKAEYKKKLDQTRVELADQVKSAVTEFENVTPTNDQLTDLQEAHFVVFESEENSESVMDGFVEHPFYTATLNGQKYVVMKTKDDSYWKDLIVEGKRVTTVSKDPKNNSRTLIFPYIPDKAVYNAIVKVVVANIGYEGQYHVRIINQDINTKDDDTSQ

Compound: C=CC1=C(C)C2=Cc3c(C=C)c(C)c4[n]3[Fe]([Cl])[n]3c(c(C)c(CCC(=O)O)c3=CC3=NC(=C4)C(C)=C3CCC(=O)O)=CC1=N2 [heme]
- Kd (IsdH linker-NEAT3): 0.51 ± 0.16 nM
- Kd (IsdH NEAT3): 1.05 ± 0.15 nM
